Laboratory results from ChEMBL document CHEMBL3232814, “Synthesis and anticancer structure activity relationship investigation of cationic anthraquinone analogs” (2014).

Assays:
Format in all cases: functional
[1] = Growth inhibition of human HOP92 cells; settings: for GI50: HOP-92; for CC50: HOP-92, read-out: LC50 (the source's name)
[2] = Growth inhibition of human UACC257 cells; settings: for GI50: UACC-257; for CC50: UACC-257, read-out: LC50 (the source's name)
SK-MEL-5 = assay: Growth inhibition of human SK-MEL-5 cells
NCI-H460 = assay: Growth inhibition of human NCI-H460 cells; settings: for CC50: read-out: LC50 (the source's name)
HT-29 = assay: Growth inhibition of human HT-29 cells
SK-MEL-28 = assay: Growth inhibition of human SK-MEL-28 cells; settings: for CC50: read-out: LC50 (the source's name)
[3] = Growth inhibition of human NCI60 cells assessed as cell growth; design: concentration or dose not given beside the values
COLO 205 = assay: Growth inhibition of human COLO205 cells; settings: for CC50: read-out: LC50 (the source's name)
[4] = Growth inhibition of human HCT15 cells; settings: for GI50: HCT-15; for CC50: HCT-15, read-out: LC50 (the source's name)
[5] = Growth inhibition of human SF295 cells; settings: SF-295
[6] = Growth inhibition of human SF539 cells; settings: for GI50: SF-539; for CC50: SF-539, read-out: LC50 (the source's name)
MDA-MB-435 = assay: Growth inhibition of human MDA-MB-435 cells; settings: for CC50: read-out: LC50 (the source's name)
[7] = Growth inhibition of human EKVX cells; settings: for CC50: read-out: LC50 (the source's name)
SK-MEL-2 = assay: Growth inhibition of human SK-MEL-2 cells; settings: for CC50: read-out: LC50 (the source's name)
NCI-H522 = assay: Growth inhibition of human NCI-H522 cells; settings: for CC50: read-out: LC50 (the source's name)
[8] = Growth inhibition of human LOXIMVI cells; settings: LOX IMVI
KM12 = assay: Growth inhibition of human KM12 cells; settings: for CC50: read-out: LC50 (the source's name)
U-251 = assay: Growth inhibition of human U251 cells
SF-268 = assay: Growth inhibition of human SF268 cells; settings: for CC50: read-out: LC50 (the source's name)
M14 = assay: Growth inhibition of human M14 cells; settings: for CC50: read-out: LC50 (the source's name)
NCI-H23 = assay: Growth inhibition of human NCI-H23 cells; settings: for CC50: read-out: LC50 (the source's name)
HOP-62 = assay: Growth inhibition of human HOP62 cells; settings: for CC50: read-out: LC50 (the source's name)
Staphylococcus aureus = assay: Antimicrobial activity against Staphylococcus aureus ATCC 25923 after 12 to 18 hrs by 2-fold serial dilution method
[9] = Growth inhibition of human UACC62 cells; settings: for GI50: UACC-62; for CC50: UACC-62, read-out: LC50 (the source's name)
HCT-116 = assay: Growth inhibition of human HCT116 cells; settings: for CC50: read-out: LC50 (the source's name)
Malme-3M = assay: Growth inhibition of human MALME-3M cells; settings: for CC50: read-out: LC50 (the source's name)
[10] = Growth inhibition of human HCC2998 cells; settings: for GI50: HCC 2998; for CC50: HCC 2998, read-out: LC50 (the source's name)
SNB-75 = assay: Growth inhibition of human SNB75 cells; settings: for CC50: read-out: LC50 (the source's name)
A549 = assay: Growth inhibition of human A549 cells; settings: for CC50: read-out: LC50 (the source's name)
SW-620 = assay: Growth inhibition of human SW620 cells; settings: for CC50: read-out: LC50 (the source's name)
SNB-19 = assay: Growth inhibition of human SNB19 cells
NCI-H226 = assay: Growth inhibition of human NCI-H226 cells; settings: read-out: LC50 (the source's name)

COc1ccc(-n2n[n+](C)c3c2C(=O)c2ccccc2C3=O)cc1.O=S(=O)([O-])C(F)(F)F
GI50 [1]: 3470 nM | CC50 [1]: > 100000 nM | GI50 [2]: 1450 nM | CC50 [2]: 5520 nM | GI50 (SK-MEL-5): 160 nM | LC50 (lethal concentration 50) (SK-MEL-5): 610 nM | GI50 (NCI-H460): 300 nM | CC50 (NCI-H460): 6320 nM | GI50 (HT-29): 380 nM | LC50 (HT-29): > 100000 nM | GI50 (SK-MEL-28): 1130 nM | CC50 (SK-MEL-28): 6520 nM | Activity [3]: -24.7% | GI50 (COLO 205): 230 nM | CC50 (COLO 205): 960 nM | GI50 [4]: 1230 nM | CC50 [4]: 7170 nM | GI50 [5]: 630 nM | LC50 (concentration killing 50% of cells) [5]: 5250 nM | GI50 [6]: 1280 nM | CC50 [6]: 5600 nM | GI50 (MDA-MB-435): 190 nM | CC50 (MDA-MB-435): 680 nM | GI50 [7]: 2420 nM | CC50 [7]: 33000 nM | GI50 (SK-MEL-2): 2050 nM | CC50 (SK-MEL-2): > 100000 nM | GI50 (NCI-H522): 2050 nM | CC50 (NCI-H522): 18200 nM | GI50 [8]: 1240 nM | GI50 (KM12): 970 nM | CC50 (KM12): 6240 nM | GI50 (U-251): 1160 nM | LC50 (U-251): 5770 nM | GI50 (SF-268): 1720 nM | CC50 (SF-268): > 100000 nM | GI50 (M14): 210 nM | CC50 (M14): 880 nM | GI50 (NCI-H23): 1050 nM | CC50 (NCI-H23): > 100000 nM | GI50 (HOP-62): 980 nM | CC50 (HOP-62): 5140 nM | MIC (Staphylococcus aureus): 4 µg/mL | GI50 [9]: 1010 nM | CC50 [9]: 6160 nM | GI50 (HCT-116): 370 nM | CC50 (HCT-116): > 100000 nM | GI50 (Malme-3M): 240 nM | CC50 (Malme-3M): 2110 nM | GI50 [10]: 450 nM | CC50 [10]: 4720 nM | GI50 (SNB-75): 1250 nM | CC50 (SNB-75): 5150 nM | GI50 (A549): 330 nM | CC50 (A549): > 100000 nM | GI50 (SW-620): 380 nM | CC50 (SW-620): 5330 nM | GI50 (SNB-19): 1010 nM | LC50 (SNB-19): 4940 nM

C[n+]1nn(-c2ccccc2)c2c1C(=O)c1ccccc1C2=O.[Cl-]
GI50 [1]: 4170 nM | CC50 [1]: 9150 nM | GI50 [2]: 1700 nM | CC50 [2]: 4490 nM | GI50 (SK-MEL-5): 180 nM | LC50 (lethal concentration 50) (SK-MEL-5): 550 nM | GI50 (NCI-H460): 300 nM | CC50 (NCI-H460): 4230 nM | GI50 (HT-29): 400 nM | LC50 (HT-29): > 100000 nM | GI50 (SK-MEL-28): 1190 nM | CC50 (SK-MEL-28): 6470 nM | Activity [3]: -10.18% | GI50 (COLO 205): 190 nM | CC50 (COLO 205): 620 nM | GI50 [4]: 1290 nM | CC50 [4]: 6370 nM | GI50 [5]: 540 nM | LC50 (concentration killing 50% of cells) [5]: 4970 nM | GI50 [6]: 1090 nM | CC50 [6]: 4720 nM | GI50 (MDA-MB-435): 200 nM | CC50 (MDA-MB-435): 580 nM | CC50 (NCI-H226): 5300 nM | GI50 [7]: 1890 nM | CC50 [7]: 12600 nM | GI50 (SK-MEL-2): 2180 nM | CC50 (SK-MEL-2): 6440 nM | GI50 (NCI-H522): 11500 nM | CC50 (NCI-H522): 7740 nM | GI50 [8]: 1160 nM | CC50 ([8]; read-out: LC50 (the source's name)): 5550 nM | GI50 (KM12): 820 nM | CC50 (KM12): 9300 nM | GI50 (U-251): 1260 nM | LC50 (U-251): 4330 nM | GI50 (SF-268): 1640 nM | CC50 (SF-268): > 100000 nM | GI50 (M14): 200 nM | CC50 (M14): 550 nM | GI50 (NCI-H23): 980 nM | CC50 (NCI-H23): 6540 nM | GI50 (HOP-62): 760 nM | CC50 (HOP-62): 5570 nM | MIC (Staphylococcus aureus): 8 µg/mL | GI50 [9]: 1090 nM | CC50 [9]: 5230 nM | GI50 (HCT-116): 320 nM | CC50 (HCT-116): 1500 nM | GI50 (Malme-3M): 210 nM | CC50 (Malme-3M): 650 nM | GI50 [10]: 340 nM | CC50 [10]: 3690 nM | GI50 (SNB-75): 640 nM | CC50 (SNB-75): 5870 nM | GI50 (A549): 350 nM | CC50 (A549): 5460 nM | GI50 (SW-620): 550 nM | CC50 (SW-620): 3840 nM | GI50 (SNB-19): 1070 nM | LC50 (SNB-19): 4340 nM
